Data reported in patent US5134137A, “Cephalosporin antibiotics” (The Upjohn Company, priority 1990, dated 1992).
Like-named read-outs stand apart in the source and are kept apart here.

Columns and labels:
Format in all cases: cell-based
[1] = system: Pseudomonas aeruginosa; assay: MIC, agar dilution, Pseudomonas aeruginosa; settings: strain ATCC 27853
Procedure: (§1) Stock solution of each test antibiotic compound were prepared to have a concentration of 2 mg. of the test compound per milliliter in sterile water of 0.1M ammonium acetate solution. The amount of each compound used was adjusted for base compound activity as calculated from the purity data for the selected batch of compound.
(§2) The dilution procedure described by Washington and Sutter [Manual of Clinical Microbiology, 3rd, Edit. (Lennett, E. H. et al, Eds.), pp. 453-458 (1980), American Society for Microbiology, Washington, D.C.] was modified so that serial concentrations of 128 to 0.0625 microgram/ml. in sterile water was obtained. Then 1.5 ml. aliquots of these test antibiotic dilution mixtures are added to 13.5 molten (50° C.) Mueller-Hinton agar. Each resulting mixture is poured into 15×100 mm, sterile Petri plates and allowed to dry at room temperature overnight.
(§3) Test bacterial cultures are maintained at -70° C. on glass beads. [See R. J. Yancey, Jr. et al, Amer. Jr. of Vet. Research, 48, No. 7, pp. 1050-1053, (1987)]. At least one bacteria-laden bead per culture is dropped into one ml. of brain heart infusion (BHI) broth for overnight culture at 37° C. in 5% V/V carbon dioxide in air atmosphere.
(§4) On the data of assay, 2 to 8 drops of the bacterial broth cultures are transferred to fresh BHI broth (1 ml.) and the mixture is incubated for 4 to 6 hours at 37° C. in a 5% V/V carbon dioxide in air atmosphere. The resulting cultures are then diluted to match a 0.5 MacFarland standard and further diluted 1:20 V/V with sterile saline solution.
(§5) A 0.001 ml. drop of the resulting mixture, containing approximately 10^3 to 10^4 colony forming units (CFU) of each test bacteria organism, is dispensed onto the surface of the test antibiotic compound test plates with a Steer's type replicator. The resulting innoculated plates are incubated 16 to 18 hours at 37° C. with a carbon dioxide atmosphere.
(§6) Stock solutions of each test antibiotic compound were prepared to have a concentration of 2 mg. of the test compound per milliliter in sterile water of 0.1M ammonium acetate solution. The amount of each compound used was adjusted for base compound activity as calculated from the purity data for the selected batch of compound.
(§7) The dilution procedure described by Washington and Sutter [Manual of Clinical Microbiology, 3rd, Edit. (Lennett, E. H. et al, Eds.), pp. 453-458 (1980), American Society for Microbiology, Washington, D.C.] was modified so that serial concentrations of 128 to 0.0625 microgram/ml. in sterile water was obtained. Then 1.5 ml. aliquots of these test antibiotic dilution mixtures are added to 13.5 molten (50° C.) Mueller-Hinton agar. Each resulting mixture is poured into 15×100 mm. sterile Petri plates and allowed to dry at room temperature overnight.
(§8) The dilution procedure described by Washington and Sutter [Manual of Clinical Microbiology, 3rd, Edit. (Lennett, E. H. et al, Eds.), pp. 453-458 (1980), American Society for Microbiology. Washington, D.C.] was modified so that serial concentrations of 128 to 0.0625 microgram/ml. in sterile water was obtained. Then 1.5 ml. aliquots of these test antibiotic dilution mixtures are added to 13.5 molten (50° C.) Mueller-Hinton agar. Each resulting mixture is poured into 15×100 mm. sterile Petri plates and allowed to dry at room temperature overnight.
(§9) Test bacterial culture are maintained at -70° C. on glass beads. [See R. J. Yancey, Jr. et al, Amer. Jr. of Vet. Research, 48, No. 7, pp. 1050-1053, (1987)]. At least one bacteria-laden bead per culture is dropped into one ml. of brain heart infusion (BHI) broth for overnight culture at 37° C. in 5% V/V carbon dioxide in air atmosphere.
(§10) On the day of assay, 2 to 8 drops of the bacterial broth cultures are transferred to fresh BHI broth (1 ml.) and the mixture is incubated for 4 to 6 hours at 37° C. in a 5% V/V carbon dioxide in air atmosphere. […]

[2] = system: Pasteurella multocida; assay: MIC, agar dilution, Pasteurella multocida; settings: strain UC9581
Procedure: as §1, §2, §3, §4, §5, §6, §7, §8, §9, §10

[3] = system: Bordetella bronchiseptica; assay: MIC, agar dilution, Bordetella bronchiseptica; settings: strain UC6313
Procedure: as §1, §2, §3, §4, §5, §6, §7, §8, §9, §10

[4] = system: Streptococcus bovis; assay: MIC, agar dilution, Streptococcus bovis; settings: strain UC6281
Procedure: as §1, §2, §3, §4, §5, §6, §7, §8, §9, §10

[5] = system: Streptococcus agalactiae; assay: MIC, agar dilution, Streptococcus agalactiae
Procedure: as §1, §2, §3, §4, §5, §6, §7, §8, §9, §10

[6] = system: Escherichia coli; assay: MIC, agar dilution, Escherichia coli
Procedure: as §1, §2, §3, §4, §5, §6, §7, §8, §9, §10

[7] = system: Micrococcus luteus; assay: MIC, agar dilution, Micrococcus luteus; settings: strain UC130
Procedure: as §1, §2, §3, §4, §5, §6, §7, §8, §9, §10

[8] = system: Enterococcus faecium; assay: MIC, agar dilution, Enterococcus faecium; settings: strain UC241
Procedure: as §6, §2, §3, §4, §5, §1, §7, §8, §9, §10

[9] = system: Staphylococcus aureus; assay: MIC, agar dilution, Staphylococcus aureus
Procedure: as §1, §2, §3, §4, §5, §6, §7, §8, §9, §10

[10] = system: Streptococcus dysgalactiae; assay: MIC, agar dilution, Streptococcus dysgalactiae; settings: strain UC251
Procedure: as §1, §2, §3, §4, §5, §6, §7, §8, §9, §10

[11] = system: Salmonella choleraesuis; assay: MIC, agar dilution, Salmonella choleraesuis
Procedure: as §1, §2, §3, §4, §5, §6, §7, §8, §9, §10

[12] = system: Streptococcus suis; assay: MIC, agar dilution, Streptococcus suis; settings: strain 650-2
Procedure: as §1, §2, §3, §4, §5, §6, §7, §8, §9, §10

[13] = system: Enterococcus faecalis; assay: MIC, agar dilution, Enterococcus faecalis; settings: strain UC694
Procedure: as §6, §2, §3, §4, §5, §1, §7, §8, §9, §10

[14] = system: Streptococcus uberis; assay: MIC, agar dilution, Streptococcus uberis
Procedure: as §1, §2, §3, §4, §5, §6, §7, §8, §9, §10

[15] = system: Salmonella typhimurium; assay: MIC, agar dilution, Salmonella typhimurium
Procedure: as §1, §2, §3, §4, §5, §6, §7, §8, §9, §10

[16] = system: Corynebacterium pyogenes; assay: MIC, agar dilution, Corynebacterium pyogenes; settings: strain 213-2
Procedure: as §1, §2, §3, §4, §5, §6, §7, §8, §9, §10

[17] = system: Pasteurella hemolytica; assay: MIC (minimum inhibitory concentration), agar dilution, Pasteurella hemolytica
Procedure: as §1, §2, §3, §4, §5, §6, §7, §8, §9, §10

Measured: MIC

CCSSCC1=C(C(=O)O)N2C(=O)C(NC(=O)C(=NOC)c3csc(N)n3)C2SC1 (stereo not drawn) [Example 10, 7-[2-(2-amino-1,3-thiazol-4-yl)-2-(methoxyimino)acetamido]-3-ethyldithiomethyl-3-cephem-4-carboxylic acid]
0.5 µg/mL: [7] | [17]; strain UC9582
2 µg/mL: [5]; strain UC3947 | [9]; strain UC6097 | [9]; strain UC9203
8 µg/mL: [6]; strain UC6720 | [15]; strain UC6162 | [15]; strain UC6164
≤ 0.06 µg/mL: [10] | [12]
32 µg/mL: [8] | [11]; strain UC6077 | [13] | [16]
> 32 µg/mL: [1] | [4] | [5]; strain UC6892 | [14]; strain UC6159
0.25 µg/mL: [14]; strain UC3946 | [17]; strain UC6531 | [17]; strain UC6532
16 µg/mL: [3] | [11]; strain UC6073
4 µg/mL: [2] | [6]; strain UC3784 | [6]; strain UC9670 | [9]; strain UC6093

CCCSSCC1=C(C(=O)O)N2C(=O)[C@@H](NC(=O)/C(=N\OC)c3csc(N)n3)[C@H]2SC1 [Example 11]
32 µg/mL: [2]; Pasteurella multocida, read-out: MIC | [3]; Bordetella bronchiseptica, read-out: MIC | [6]; Escherichia coli, strain UC6720, read-out: MIC | [11]; Salmonella enterica, CHOLERAESUIS / UC6073, strain UC6073, read-out: MIC | [15]; Salmonella enterica, TYPHIMURIUM / UC6164, strain UC6164, read-out: MIC
0.25 µg/mL: [14]; Streptococcus uberis, strain UC3946, read-out: MIC
16 µg/mL: [6]; Escherichia coli, strain UC3784, read-out: MIC | [6]; Escherichia coli, strain UC9670, read-out: MIC | [14]; Streptococcus uberis, strain UC6159, read-out: MIC | [15]; Salmonella enterica, TYPHIMURIUM / UC6162, strain UC6162, read-out: MIC
≤ 0.06 µg/mL: [10]; Streptococcus dysgalactiae, read-out: MIC | [12]; Streptococcus suis, read-out: MIC
8 µg/mL: [9]; Staphylococcus aureus, strain UC6093, read-out: MIC | [9]; Staphylococcus aureus, strain UC6097, read-out: MIC | [9]; Staphylococcus aureus, strain UC9203, read-out: MIC
0.5 µg/mL: [7]; Micrococcus luteus, read-out: MIC | [17]; Pasteurella, strain UC6531, read-out: MIC | [17]; Pasteurella, strain UC6532, read-out: MIC | [17]; Pasteurella, strain UC9582, read-out: MIC
> 32 µg/mL: [1]; Pseudomonas aeruginosa, ATCC27853, read-out: MIC | [4]; Streptococcus equinus, read-out: MIC | [5]; Streptococcus agalactiae, strain UC6892, read-out: MIC | [8]; Enterococcus faecium, read-out: MIC | [11]; Salmonella enterica, CHOLERAESUIS / UC6077, strain UC6077, read-out: MIC | [13]; Enterococcus faecalis, read-out: MIC | [16]; read-out: MIC
2 µg/mL: [5]; Streptococcus agalactiae, strain UC3947, read-out: MIC
